Measurements: paper PMC6300282, “Sulphamethazine derivatives as immunomodulating agents: New therapeutic strategies for inflammatory diseases” (PLoS ONE, 2018)

Assays:
[1] = system: Salmonella typhi (ATCC 14028); assay: Microplate Alamar Blue Assay, Salmonella typhi; format: cell-based; details: Salmonella enterica; 200 μg/mL; NI = No inhibition; read-out: Percentage (%) Inhibition, Slamonella typhi
Protocol: (§1) The anti-bacterial activity of synthesized compound were evaluated by the Microplate Alamar Blue Assay. Staphylococcus aureus (ATCC 25923), Pseudomonas aeruginosa(POA 286), Salmonella typhi (ATCC 14028), Bacillus subtilis ATCC 6633) and Escherichia coli (ATCC 12022) were used in this study as a standard bacterial strains and they were obtained from microbial bank of PCMD, International Center for Chemical and Biological Sciences, University of Karachi, Karachi-75270, Pakistan. The bacterial colonies grown in Trypton Soya Agar (TSA) (Oxoid Limited, UK) were inoculated in Mueller Hinton Broth (MHB) (Oxoid Limited, UK) and incubated overnight at 37 °C. Fully grown bacterial cultures were then diluted to adjust with 0.5 McFarland Turbidity Index (equivalent to 1.5 × 10^8 CFU/mL). Stock solutions (4 mg/mL) of different test compounds were prepared in DMSO and 10μL each of these stock solutions were placed in well of flat bottom, polystyrene, sterile 96-wells plate except the positive control wells (media + bacteria). This gives 200μg/mL concentrations of compounds in final 200 μL solution. Each compound was run in triplicates. Finally, bacterial suspension (5 x 10^6 CFU/mL) was added in each well. Plates were sealed by parafilm and incubated at 37 °C for 18–22 hrs. Next day, 20 μL of 0.02% resazurin sodium salt dye (Chem-Impex-Int’LInc) was added in each well and incubated in shaking incubator at 80 rpm, 37 °C for 2–3 hrs. The color change from blue to reddish pink indicates the growth of bacteria. For quantitative analysis, plates were read at 570 nm and 600 nm in Multiskan GOmicroplate spectrophotometer, (Thermo Scientific, USA). The % inhibition of bacterial growth was calculated using below mentioned formula.
(§2) For the calculation of the % difference in reduction between treated and control cells in cytotoxicity/proliferation assays: =(εOX)λ2Aλ1-(εOX)λ1Aλ2oftestagent/(εOX)λ2A°λ1-(εOX)λ1A°λ2ofpositivegrowthcontrol×100

[2] = system: zymosan activated whole blood phagocytes; assay: Oxidative burst assay (luminol-enhanced chemiluminescence), whole blood; format: cell-based; details: human whole blood, serum opsonized zymosan, three doses 1, 10, 100 μg/mL, mean ± SD of three, NA = Not active, read-out: Oxidative Burst Inhibition (IC50) WB
Protocol: (§3) Luminol-enhanced chemiluminescence assay was performed, as described by Helfandet al., 1982 [17], with some modifications. Briefly 25 μL of diluted whole blood in HBSS^++ (Hanks Balanced Salt Solution, containing calcium chloride and magnesium chloride) [Sigma, St. Louis, USA] was incubated with 25 μL of three different concentrations of compounds (1, 10, and 100 μg/mL), each in triplicate. Control wells received HBSS^++ and cells, but no compounds. Test was performed in white half area 96-well plates [Costar, NY, USA], which was incubated at 37 °C for 15 minutes in the thermostat chamber of luminometer [Labsystems, Helsinki, Finland]. After incubation, 25 μL of serum opsonized zymosan (SOZ) [Fluka, Buchs, Switzerland] and 25 μL of intracellular reactive oxygen species detecting probe, luminol [Research Organics, Cleveland, OH, USA] were added into each well, except blank wells (containing only HBSS^++). The level of the ROS was recorded in luminometer in term of relative light units (RLU).

MTT cytotoxicity assay = format: cell-based, mouse; details: mouse; for IC50: MTT, 48 hours, read-out: Cytotoxicity NIH-3T3 cell line (IC50)
Protocol: The cytotoxicity was recorded as concentration causing 50% growth inhibition (IC50).

[3] = system: isolated polymorphonuclear neutrophils (PMNs); assay: Oxidative burst assay (luminol-enhanced chemiluminescence), isolated PMNs; format: cell-based; details: Polymorphonuclear neutrophil, isolated human PMNs, zymosan, three doses 1, 10, 100 μg/mL, mean ± SD of three, read-out: Oxidative Burst Inhibition (IC50) PMNs
Excerpt: Heparinized blood was obtained by vein puncture aseptically from healthy volunteers. The PMNs were isolated by ficoll-Hypaque density gradient method. The cells were isolated after centrifugation from the tube base. Cells were washed twice and suspended in Hank’s Balance salt solution (HBSS^--) (Ca^2+ and Mg^2+ free), RBCs were lysed using hypotonic solution. Cells were adjusted to their required concentration (1x10^6 cells/mL) using HBSS^++containing Ca^2+ and Mg^2+.
as §3

[4] = system: Staphylococcus aureus (ATCC 25923); assay: Microplate Alamar Blue Assay, Staphylococcus aureus; format: cell-based; details: Staphylococcus aureus, ATCC25923; 200 μg/mL; NI = No inhibition; read-out: Percentage (%) Inhibition, Staphylococcus aureus
Protocol: as §1, §2

[5] = system: Escherichia coli (ATCC 12022); assay: Microplate Alamar Blue Assay, Escherichia coli; format: cell-based; details: ATCC12022, 200 μg/mL, NI = No inhibition, read-out: Percentage (%) Inhibition, Escherichia coli
Protocol: as §1, §2

[6] = system: Pseudomonas aeruginosa (POA 286); assay: Microplate Alamar Blue Assay, Pseudomonas aeruginosa; format: cell-based; details: Pseudomonas aeruginosa; 200 μg/mL; NI = No inhibition; read-out: Percentage (%) Inhibition, Pseudomonas aerugenosa
Protocol: as §1, §2

Cc1cc(C)nc(NS(=O)(=O)c2ccc(NC(=O)C(Br)CBr)cc2)n1 (stereo not drawn) [Compound 3, 2,3-Dibromo-N-(4-(N-(4,6-dimethylpyrimidin-2-yl)sulfamoyl)phenyl)propanamide]
inhibition at 200 µg/mL [1]: < 0% | IC50 [2]: 6.5 ± 1.3 µg/mL | IC50 (MTT cytotoxicity assay): > 30 µM | IC50 [3]: 3.6 ± 0.05 µg/mL | inhibition at 200 µg/mL [4]: 60% | inhibition at 200 µg/mL [5]: < 0% | inhibition at 200 µg/mL [6]: 5.93%

Cc1cc(C)nc(NS(=O)(=O)c2ccc(NC(=O)c3cccc(CCl)c3)cc2)n1 [Compound 4, 3-(Chloromethyl)-N-(4-(N-(4,6-dimethylpyrimidin-2-yl)sulfamoyl)phenyl)benzamide]
inhibition at 200 µg/mL [1]: < 0% | IC50 [2]: 7.3 ± 0.4 µg/mL | IC50 (MTT cytotoxicity assay): > 30 µM | IC50 [3]: 6.1 ± 0.08 µg/mL | inhibition at 200 µg/mL [4]: 3.21% | inhibition at 200 µg/mL [5]: < 0% | inhibition at 200 µg/mL [6]: < 0%

Cc1cc(C)nc(NS(=O)(=O)c2ccc(NC(=O)c3ccc(CCl)cc3)cc2)n1 [Compound 5, 4-(Chloromethyl)-N-(4-(N-(4,6-dimethylpyrimidin-2-yl)sulfamoyl)phenyl)benzamide]
inhibition at 200 µg/mL [1]: < 0% | IC50 [2]: 20.5 ± 2.2 µg/mL | IC50 (MTT cytotoxicity assay): > 30 µM | IC50 [3]: 3 ± 0.06 µg/mL | inhibition at 200 µg/mL [4]: 35% | inhibition at 200 µg/mL [5]: < 0% | inhibition at 200 µg/mL [6]: < 0%

Cc1cc(C)nc(NS(=O)(=O)c2ccc(NC(=O)c3cc(C(F)(F)F)cc(C(F)(F)F)c3)cc2)n1 [Compound 6, N-(4-(N-(4,6-dimethylpyrimidin-2-yl)sulfamoyl)phenyl)-3,5-bis(trifluoromethyl)benzamide]
inhibition at 200 µg/mL [1]: < 0% | IC50 [2]: 5.7 ± 0.8 µg/mL | IC50 (MTT cytotoxicity assay): > 30 µM | IC50 [3]: 3.4 ± 0.1 µg/mL | inhibition at 200 µg/mL [4]: 32.7% | inhibition at 200 µg/mL [5]: < 0% | inhibition at 200 µg/mL [6]: < 0%

Cc1cc(C)nc(NS(=O)(=O)c2ccc(NC(=O)c3cc(F)cc(F)c3)cc2)n1 [Compound 7, N-(4-(N-(4,6-dimethylpyrimidin-2-yl)sulfamoyl)phenyl)-3,5-difluorobenzamide]
inhibition at 200 µg/mL [1]: 13.1% | IC50 [2]: 5.8 ± 0.6 µg/mL | IC50 (MTT cytotoxicity assay): > 30 µM | IC50 [3]: 2.9 ± 0.3 µg/mL | inhibition at 200 µg/mL [4]: 54.3% | inhibition at 200 µg/mL [5]: < 0% | inhibition at 200 µg/mL [6]: < 0%

Cc1cc(C)nc(NS(=O)(=O)c2ccc(NC(=O)c3cc(F)cc(C(F)(F)F)c3)cc2)n1 [Compound 8, N-(4-(N-(4,6-dimethylpyrimidin-2-yl)sulfamoyl)phenyl)-3-fluoro-5-(trifluoromethyl)benzamide]
inhibition at 200 µg/mL [1]: 29.4% | IC50 [2]: 4.2 ± 0.2 µg/mL | IC50 (MTT cytotoxicity assay): > 30 µM | IC50 [3]: 2.4 ± 0.07 µg/mL | inhibition at 200 µg/mL [4]: 47.3% | inhibition at 200 µg/mL [5]: < 0% | inhibition at 200 µg/mL [6]: 4.31%

Cc1cc(C)nc(NS(=O)(=O)c2ccc(NC(=O)c3ccc(C(F)(F)F)c(F)c3)cc2)n1 [Compound 9, N-(4-(N-(4,6-dimethylpyrimidin-2-yl)sulfamoyl)phenyl)-3-fluoro-4-(trifluoromethyl)benzamide]
inhibition at 200 µg/mL [1]: 0.94% | IC50 [2]: 5.7 ± 0.2 µg/mL | IC50 (MTT cytotoxicity assay): > 30 µM | IC50 [3]: 2.8 ± 0.05 µg/mL | inhibition at 200 µg/mL [4]: 27.9% | inhibition at 200 µg/mL [5]: < 0% | inhibition at 200 µg/mL [6]: < 0%

Cc1cc(C)nc(NS(=O)(=O)c2ccc(NC(=O)c3ccc(F)c(C(F)(F)F)c3)cc2)n1 [Compound 10, N-(4-(N-(4,6-dimethylpyrimidin-2-yl)sulfamoyl)phenyl)-4-fluoro-3-(trifluoromethyl)benzamide]
inhibition at 200 µg/mL [1]: < 0% | IC50 [2]: 10.6 ± 0.5 µg/mL | IC50 (MTT cytotoxicity assay): > 30 µM | IC50 [3]: 3.4 ± 0.4 µg/mL | inhibition at 200 µg/mL [4]: 1.09% | inhibition at 200 µg/mL [5]: < 0% | inhibition at 200 µg/mL [6]: < 0%

Cc1cc(C)nc(NS(=O)(=O)c2ccc(NC(=O)C(C)Cl)cc2)n1 (stereo not drawn) [Compound 11, 2-Chloro-N-(4-(N-(4,6-dimethylpyrimidin-2-yl)sulfamoyl)phenyl)propanamide]
inhibition at 200 µg/mL [1]: 29.6% | IC50 [2]: 34.6 ± 1.2 µg/mL | IC50 (MTT cytotoxicity assay): > 30 µM | IC50 [3]: 6.2 ± 0.13 µg/mL | inhibition at 200 µg/mL [4]: < 0% | inhibition at 200 µg/mL [5]: 3.93% | inhibition at 200 µg/mL [6]: 26.5%

Cc1cc(C)nc(NS(=O)(=O)c2ccc(NC(=O)c3ccc(F)cc3)cc2)n1 [Compound 12, N-(4-(N-(4,6-dimethylpyrimidin-2-yl)sulfamoyl)phenyl)-4-fluorobenzamide]
inhibition at 200 µg/mL [1]: 19% | IC50 [2]: 10.6 ± 0.5 µg/mL | IC50 (MTT cytotoxicity assay): > 30 µM | IC50 [3]: 3.3 ± 0.05 µg/mL | inhibition at 200 µg/mL [4]: 49.7% | inhibition at 200 µg/mL [5]: < 0% | inhibition at 200 µg/mL [6]: < 0%

Cc1cc(C)nc(NS(=O)(=O)c2ccc(NC(=O)c3cccc([N+](=O)[O-])c3)cc2)n1 [Compound 13, N-(4-(N-(4,6-dimethylpyrimidin-2-yl)sulfamoyl)phenyl)-3-nitrobenzamide]
inhibition at 200 µg/mL [1]: < 0% | IC50 [2]: 9.2 ± 0.6 µg/mL | IC50 (MTT cytotoxicity assay): > 30 µM | IC50 [3]: 4.9 ± 0.2 µg/mL | inhibition at 200 µg/mL [4]: 34.3% | inhibition at 200 µg/mL [5]: < 0% | inhibition at 200 µg/mL [6]: 6.58%

Cc1cc(C)nc(NS(=O)(=O)c2ccc(N)cc2)n1 [compound 1, Sulfamethazine, reference compound]
inhibition at 200 µg/mL [1]: < 0% | IC50 [2]: 8.9 ± 1.3 µg/mL | IC50 at 48 h (MTT cytotoxicity assay): > 30 µM | IC50 [3]: 5.2 ± 0.05 µg/mL | inhibition at 200 µg/mL [4]: 42.2% | inhibition at 200 µg/mL [5]: < 0% | inhibition at 200 µg/mL [6]: 8.92%
